Data from US20050255097A1, “Modified venom and venom components as anti-retroviral agents” (priority 2004, published 2005).

What was measured:
[1] = test system: T cells from peripheral blood; conditions: Mizuno, et al., 1982; cited from earlier work
[2] = test system: mice; type: in vivo
From the text: Administration of a highly toxic substance such as cobratoxin for therapeutic purposes is fraught with obvious difficulties, even when highly diluted. As a diluted substance, its potential effectiveness is reduced, and due to its high affinity for the nAchR, continued use could result in accumulation of the toxin at neuromuscular junctions and the diaphragm with the potential for adverse events. Alpha cobratoxin, of the Thailand cobra, Naja naja kaouthia, is a homogeneous non-glycosylated polypeptide composed of 71 amino acids with a molecular weight of 7821d and a pI of 9.6. Detoxification of alpha-cobratoxin can be achieved by exposure to heat, formamide, hydrogen peroxide, perchloric acid, ozone or other oxidizing agents. The result of exposure of cobratoxin to oxidizing agents is modification of amino acid side chains as well as the lysis of one or more disulfide bonds. […] The procedures used for detoxification described here are based upon the work of Sanders, who preferred the use of hydrogen peroxide (Sanders, et al., 1975). Loss of toxicity by oxidized alpha-neurotoxins (MCTX), as cobratoxin, can be determined by the intraperitoneal (IP) injection of excess levels of the modified protein into mice. […]
The endpoint of the above reactions are most easily determined by assessing the toxicity of the preparation in mice. […]

[3] = test system: herpesvirus; experiment: Antiviral activity against herpes virus; type: cell-based
[4] = test system: Semliki Forest virus; experiment: Antiviral activity against Semliki Forest virus (plaque assay); type: cell-based
From the text: Alternatively, an enzyme linked immunosorbant assay (ELISA) can evaluate loss of toxicity, as well as potential potency in terms of continued ability to bind to the nAchR. […] This enables a measurement of the depression in binding of the modified neurotoxin to nAchR, indicative of loss of toxicity, while simultaneously indicating a continued ability of the modified toxin to bind to the nAchR providing a measure of potency (Raymond; unpublished data). To test the effectiveness, or potency of detoxified venom, Sanders utilized a plaque assay with Semliki Forest virus (Miller, et al., 1977).

[5] = type: cell-based; conditions: virus not specified
[6] = pI and pH of protein solutions; type: physicochemical

## C[N+](C)(C)CCOC(N)=O.[Cl-] [carbamylcholine chloride]
[1]
  decrease of E-rosette formation: 30%-40%

## alpha-cobratoxin: native non-glycosylated polypeptide of 71 amino acids from the Thailand cobra, Naja naja kaouthia
[2]; injected subcutaneously or intraperitoneally, death observable within hours
  LD50 in mice: 1.2 µg
[2]; injection of 1.5 mcg, 25 g mouse
  time to death: ≤ 25 min
[3]
  antiviral activity against herpes: does not have any antiviral activity
[4]
  antiviral activity against Semliki Forest virus: does not have any antiviral activity
[5]
  antiviral activity: does not demonstrate antiviral activity
[6]
  pH of solution: 8.5
  pI: 9.6
